Source: patent US10577356B2, “Beta-arrestin-biased cannabinoid CB1 receptor agonists and methods for making and using them” (priority 2014, dated 2020)
“Also recorded” adds a separate entry of the source.

Columns and labels:
[1] = target: T1, CB1 (Homo sapiens, UniProt P21554); assay: GTPγS stimulation levels in hCB1/HEK cells (FIG. 9); type: biochemical; set-up: expressed in transfected cells; host or cells: HEK cells (hCB1/HEK); conditions: compound applied alone
Procedure: (§1) Compounds were tested using a GTPγS assay as previously described (Shore D M, et al. J Biol Chem. 2014; 289(9):5828-45; incorporated herein by reference in its entirety). Compounds were tested using an ERK assay as previously described (Kapur A, et al. J Biol Chem. 2009; 284:29817-29827; incorporated herein by reference in its entirety).
Target sequence in this assay (P21554 whole entry): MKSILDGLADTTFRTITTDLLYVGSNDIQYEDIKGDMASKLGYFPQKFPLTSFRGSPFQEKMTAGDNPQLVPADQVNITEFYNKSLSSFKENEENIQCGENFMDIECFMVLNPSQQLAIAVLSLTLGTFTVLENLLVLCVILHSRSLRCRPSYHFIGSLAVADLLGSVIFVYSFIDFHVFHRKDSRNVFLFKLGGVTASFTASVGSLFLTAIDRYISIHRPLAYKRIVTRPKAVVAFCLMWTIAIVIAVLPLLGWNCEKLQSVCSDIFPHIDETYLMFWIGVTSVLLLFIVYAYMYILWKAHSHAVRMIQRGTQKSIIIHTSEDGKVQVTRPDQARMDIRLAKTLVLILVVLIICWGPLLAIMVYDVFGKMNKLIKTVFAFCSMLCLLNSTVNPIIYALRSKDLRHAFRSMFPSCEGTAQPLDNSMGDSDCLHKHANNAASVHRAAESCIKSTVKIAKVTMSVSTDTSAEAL

[2] = target: T2, CB1 (Mus musculus, UniProt P47746); assay: Basal G protein signaling, GTP-gamma-S binding, compound applied alone, membranes (FIG. 4-7); type: biochemical
T2 construct: from tissue
Procedure: as §1

[3] = target: T1, CB1; assay: ERK assay, pERK production in cells (FIG. 8, FIG. 10); type: cell-based; conditions: compound applied alone
Procedure: as §1
Target sequence in this assay (P21554 whole entry, species assumed): as the sequence (P21554 whole entry) above

[4] = target: T1, CB1; assay: Effect on CP55,940 binding (Bmax) at CB1 (FIG. 3); conditions: compared with ORG27569
Target sequence in this assay (P21554 whole entry, species assumed): as the sequence (P21554 whole entry) above

[5] = target: T1, CB1; assay: Antagonism of CP55,940's [35S]GTPγS signaling / allosteric modulation of CB1 (FIG. 3); type: biochemical; conditions: compared with ORG27569
Procedure: as §1
Target sequence in this assay (P21554 whole entry, species assumed): as the sequence (P21554 whole entry) above

T2 sequence (P47746 whole entry): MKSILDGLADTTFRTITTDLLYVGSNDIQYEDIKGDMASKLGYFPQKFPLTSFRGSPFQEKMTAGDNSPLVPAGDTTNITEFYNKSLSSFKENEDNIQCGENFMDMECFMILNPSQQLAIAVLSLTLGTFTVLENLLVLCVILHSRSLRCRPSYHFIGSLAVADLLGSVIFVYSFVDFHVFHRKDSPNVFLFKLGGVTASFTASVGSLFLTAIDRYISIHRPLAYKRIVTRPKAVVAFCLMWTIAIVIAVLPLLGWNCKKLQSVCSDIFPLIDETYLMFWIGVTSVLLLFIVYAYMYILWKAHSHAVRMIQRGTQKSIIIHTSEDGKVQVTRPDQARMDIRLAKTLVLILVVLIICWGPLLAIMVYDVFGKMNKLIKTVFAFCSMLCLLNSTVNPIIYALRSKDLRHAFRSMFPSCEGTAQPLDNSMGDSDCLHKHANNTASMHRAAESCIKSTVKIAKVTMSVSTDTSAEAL

Compound | GTP-gamma-S binding at the human CB1 receptor [1] | effect on basal G protein signaling (GTP-gamma-S binding) [2] | ERK signaling / pERK production [3] | effect on CP55,940's Bmax [4] | antagonism of CP55,940's [35S]GTPλS signaling [5] | allosteric modulation of CB1 (effects on binding and G protein-mediated signaling) [5]
CCc1c(C(=O)NCCc2ccc(N3CCCCC3)cc2)[nH]c2ccc(Cl)cc12 [ORG27569, reference compound] | causes a decrease (including below basal) | – | – | – | – | –
O=C(NCCc1ccc(N2CCCCC2)cc1)c1[nH]c2ccc(Cl)cc2c1Cc1ccccc1 [Compound 4, 3-Benzyl-5-chloro-N-{2-[4-(piperidin-1-yl)phenyl]ethyl}-1H-indole-2-carboxamide] | – | no effect on GTP-gamma-S binding; also recorded: does not act as an inverse agonist of [^35S]GTPλS signaling | may act as a weak inverse agonist of ERK signaling | did not affect CP55,940's Bmax | antagonized CP55,940's [^35S]GTPλS signaling as well as ORG27569 | –
CCc1c(C(=O)NC[C@H](O)c2ccc(N3CCCCC3)cc2)[nH]c2ccc(Cl)cc12 [Compound 2, 5-Chloro-3-ethyl-N-[(2R)-2-hydroxy-2-[4-(piperidin-1-yl)phenyl]ethyl]-1H-indole-2-carboxamide] | – | partial agonist in membranes; also recorded: does not act as an inverse agonist of [^35S]GTPλS signaling; also recorded: may act as a weak agonist of G protein-mediated signaling | – | improves CP55,940's Bmax better than as ORG27569 | antagonizes CP55,940's [^35S]GTPλS signaling as well as ORG27569 | more potent negative allosteric modulator than ORG27569
CCc1c(C(=O)NCCc2ccc(N3CCCCC3)cc2C2CC2)[nH]c2ccc(Cl)cc12 [Compound 3, 5-Chloro-N-{2-[2-cyclopropyl-4-(piperidin-1-yl)phenyl]ethyl}-3-ethyl-1H-indole-2-carboxamide] | no effect on GTP-gamma-S binding; also recorded: did not have any significant effect on [^35S]GTPλS signaling when applied alone | no effect on GTP-gamma-S binding | robust effect, particularly at early time points, compared to CP (CP55,940); also recorded: does generate an ERK signal | does not improve CP55,940's Bmax (and may actually reduce it) | – | does not act as an allosteric modulator of CB1
CCc1c(C(=O)NC[C@@H](O)c2ccc(N3CCCCC3)cc2)[nH]c2ccc(Cl)cc12 [Compound 1, 5-Chloro-3-ethyl-N-[(2S)-2-hydroxy-2-[4-(piperidin-1-yl)phenyl]ethyl]-1H-indole-2-carboxamide] | – | no effect on GTP-gamma-S binding; also recorded: does not act as an inverse agonist of [^35S]GTPλS signaling | – | does not improve CP55,940's Bmax as well as ORG27569 | does not antagonize CP55,940's [^35S]GTPλS signaling as well as ORG27569 | less potent and efficacious negative allosteric modulator of CB1 than ORG27569
CCCCCCC(C)(C)c1ccc([C@@H]2C[C@H](O)CC[C@H]2CCCO)c(O)c1 [CP55940, reference compound] | causes a rise in GTP-gamma-S binding | – | – | – | – | –
